Measured values published in patent publication EP4772634A1, “DOUBLE-STRANDED RNA TARGETING COAGULATION FACTOR XI” (Chia Tai Tianqing Pharmaceutical Group Co., Ltd., priority 2023, dated 2025).

System: human coagulation factor XI protein
Assay: In vivo activity in human coagulation factor XI model mice (Experimental Example 4), FXI protein by ELISA
Details: female humanized homozygous mice, single subcutaneous 3 mg/kg
Protocol: The humanized mice used in this experimental example were purchased from Cyagen Biosciences Co., Ltd. The female humanized homozygous mice were randomly divided into groups, with 4 mice per group. The compound and PBS control (pH = 7.2) were administered to each group of mice, respectively. The day of the first administration was designated as day 0 of the experiment. The corresponding compound solutions were administered via a single subcutaneous injection based on animal body weight, at an administration dose of 3 mg/kg. PBS control mice were each administered PBS, with an administration volume of 10 mL/kg body weight. Orbital blood was collected before administration and on day 3, day 7, day 14, day 21, day 28, day 42, day 56, and day 70 after administration. Serum was separated, and the content of the coagulation factor XI protein in the serum at each time point was measured using a Human Coagulation Factor XI ELISA kit (Thermo, Batch No. 2350072722, Cat. No. EH118RB).
The coagulation factor XI protein inhibition rate was calculated according to the following equation: [formula]
Table 13 lists the measurement of coagulation factor XI protein content in animal plasma before and on day 3, day 7, day 14, day 21, day 28, day 42, day 56, and day 70 after a single subcutaneous administration of siRNA ligand conjugates at a dose of 3 mg/kg to humanized homozygous mice. […] Table 13. In vivo experimental design

“TD02M02L01: dsRNA ligand conjugate: TD02M02 with L01 (GalNAc) ligand at 3' end of sense strand SEQ ID NO 35; antisense SEQ ID NO 36 (sense GGATGATTTTCTTATATCA; antisense TGATATAAGAAAATCATCCTG; GalNAc L01 ligand at sense 3' end, 2'-OMe/2'-F, pattern not given here)” was tested, and the “Relative inhibition rate (%) of FXI protein” value (from here on “Relative inhibition rate (%)”) (D3) was 74.4%, the “Relative inhibition rate (%)” value (D7) was 93.7% and the “Relative inhibition rate (%)” value (D14) was 86.4%. For the same substance, the “Relative inhibition rate (%)” value (D21) was 88.0%, the “Relative inhibition rate (%)” value (D28) was 84.9% and the “Relative inhibition rate (%)” value (D42) was 63.3%. For the same substance, the “Relative inhibition rate (%)” value (D56) was 50.4% and the “Relative inhibition rate (%)” value (D70) was 21.4%.
